One compound from patent US20110159113A1, “HYPERBRANCHED POLYESTER AND A METHOD OF SYNTHESIZING A HYPERBRANCHED POLYESTER” (priority 2011, published 2011) can be followed below.

In the assay the test system is tumor cells C26. As to the kind of experiment: MTT assay, in vitro cytotoxicity, 72 h incubation. The assay is classed as cell-based. Here is the method:
In vitro cytotoxicity of CDDP, P(CA8-G)-CDDP and P(CA12-G)-CDDP was evaluated by using a MTT assay. To measure cytotoxicity, tumor cells C26 were separately incubated in a plate with different concentrations of CDDP, P(CA8-G)-CDDP and P(CA12-G)-CDDP. The duration of incubation was 72 h. […] With respect to FIG. 13, it is concluded that, loading of cisplatin into the P(CA8-G)-CDDP and P(CA12-G)-CDDP influences its cytotoxicity. […] According to the MTT assay measurements, IC50 doses of free cisplatin, P(CA8-G)-CDDP and P(CA12-G)-CDDP were calculated. IC50 dose is the concentrations of active ingredients necessary to inhibit the cell growth by 50%.
P(CA12-G)-CDDP was synthesized in the same manner as explained above. P(CA8-G)-CDDP and P(CA12-G)-CDDP were used for MTT assay measurements.

In turn, `N.N.[Cl][Pt][Cl]` [CDDP, cis-dichlorodiammineplatinum (II)] came in with an IC50 of 37.9 µg/mL.

As usually defined, the IC50 is the concentration that gives 50% inhibition.
